Measured values reported in ChEMBL document CHEMBL1126104, “Synthesis and antiviral activity of some new S-adenosyl-L-homocysteine derivatives” (1992).
Converted amounts (≈) assume the structure as drawn.

Tests used:
Human alphaherpesvirus 1 = assay: Antiviral activity against HSV-1(KOS) strain in primary rabbit kidney (PRK) / embryonic skin-muscle (E6SM) fibroblast culture lines; format: functional; conditions: Human alphaherpesvirus 1, Muscle tissue
Sindbis virus = assay: Antiviral activity against sindbis virus in Vero cell culture lines; format: functional
Coxsackievirus B4 [1] = assay: Antiviral activity against coxsackie B4 in Vero cell culture lines; format: functional; conditions: Enterovirus B
Human alphaherpesvirus 2 = assay: Antiviral activity against HSV-2(G) strain in primary rabbit kidney (PRK) / embryonic skin-muscle (E6SM) fibroblast culture lines; format: functional; conditions: Human alphaherpesvirus 2, Muscle tissue
[2] = test system: Vesicular stomatitis virus; assay: Antiviral activity against vesicular stomatitis virus (VSV) in primary rabbit kidney (PRK) / embryonic skin-muscle (E6SM) fibroblast culture lines; format: functional; conditions: Muscle tissue
Human respirovirus 3 = assay: Antiviral activity against parainfluenza virus type 3 in Vero cell culture lines; format: functional
Poliovirus 1 = assay: Antiviral activity against polio virus type 1 in HeLa cell culture lines; format: functional; conditions: Enterovirus C
Vaccinia virus = assay: Antiviral activity against vaccinia virus (VV) in primary rabbit kidney (PRK) / embryonic skin-muscle (E6SM) fibroblast culture lines; format: functional; conditions: Orthopoxvirus vaccinia, Muscle tissue
Coxsackievirus B4 [3] = assay: Antiviral activity against coxsackie B4 virus in HeLa cell culture lines; format: functional; conditions: Enterovirus B
Semliki Forest virus = assay: Antiviral activity against semliki forest virus (SFV) in Vero cell culture lines; format: functional
[4] = test system: Mammalian orthoreovirus 1; assay: Antiviral activity against reovirus type 1 in Vero cell culture lines; format: functional
[5] = test system: Vesicular stomatitis virus; assay: Antiviral activity against vesicular stomatitis virus (VSV) in HeLa cell culture lines,; format: functional
[6] = test system: Human immunodeficiency virus 1; assay: Antiviral activity against (HIV-1) in MT-4 cells Value in parentheses is inhibitory concentration for cell growth (MT-4); format: functional, MT4

Structure (SMILES) | MIC (Human alphaherpesvirus 1) [µg/mL] | MIC (Sindbis virus) [µg/mL] | MIC (Coxsackievirus B4 [1]) [µg/mL] | MIC (Human alphaherpesvirus 2) [µg/mL] | MIC [2] [µg/mL] | MIC (Human respirovirus 3) [µg/mL] | MIC (Poliovirus 1) [µg/mL] | MIC (Vaccinia virus) [µg/mL] | MIC (Coxsackievirus B4 [3]) [µg/mL] | MIC (Semliki Forest virus) [µg/mL] | MIC [4] [µg/mL] | MIC [5] [µg/mL] | MIC [6] [µg/mL]
Nc1ncnc2c(C3O[C@H](CSCCC(N)C(=O)O)[C@@H](O)[C@H]3O)n[nH]c12 (some centres undefined) | 200 (≈ 520 µM) | > 100 | > 100 | 400 (≈ 1040 µM) | 20 (≈ 52 µM) | 30 (≈ 78 µM) | > 400 | 100 (≈ 260 µM) | > 400 | > 100 | > 100 | 150 (≈ 390 µM) | > 4
Nc1ncnc2c([C@@H]3O[C@H](CSCCC(N)C(=O)O)C[C@H]3O)n[nH]c12 (some centres undefined) | > 40 | > 40 | > 40 | > 40 | > 40 | > 40 | > 40 | > 40 | > 40 | > 40 | > 40 | > 40 | > 100
CC(C)(C)C(=O)ONC(CCSC[C@H]1OC(n2ccc3c(N)ncnc32)[C@H](O)[C@@H]1O)C(=O)OCC[Si](C)(C)C (some centres undefined) | > 10 | > 40 | 70 (≈ 120 µM) | > 10 | > 10 | > 40 | > 40 | 2 (≈ 3.43 µM) | > 40 | > 40 | > 40 | > 40 | > 8
Nc1ncnc2c([C@H]3C[C@@H](O)[C@@H](CO)O3)n[nH]c12 | > 400 | > 400 | 300 (≈ 1190 µM) | > 400 | > 400 | > 400 | > 400 | > 400 | > 400 | > 400 | > 400 | > 400 | > 100
Nc1nccc2c1ncn2[C@@H]1O[C@H](CO)C[C@H]1O | > 100 | > 100 | > 100 | 70 (≈ 280 µM) | > 100 | > 100 | > 40 | > 40 | > 40 | > 100 | > 100 | > 40 | > 20
CC(C)(C)C(=O)ONC(CCSC[C@H]1OC(n2ccc3c(N)ncnc32)[C@H](O)[C@@H]1O)C(=O)O (some centres undefined) | > 100 | > 400 | > 400 | > 100 | > 100 | > 400 | > 400 | 20 (≈ 41.4 µM) | > 400 | > 400 | > 400 | > 400 | > 200
CCOC(=O)C(CCSC[C@H]1OC(n2ccc3c(N)ncnc32)[C@H](O)[C@@H]1O)NC(C)=O (some centres undefined) | 70 (≈ 154 µM) | > 70 | 20 (≈ 44.1 µM) | 20 (≈ 44.1 µM) | 5 (≈ 11 µM) | > 40 | 70 (≈ 154 µM) | 15 (≈ 33.1 µM) | 70 (≈ 154 µM) | > 100 | > 30 | > 20 | > 4
CC(C)OC(=O)C(CCSC[C@H]1OC(n2ccc3c(N)ncnc32)[C@H](O)[C@@H]1O)NC(=O)C(F)(F)F (some centres undefined) | 20 (≈ 38.3 µM) | > 70 | > 50 | 10 (≈ 19.2 µM) | 5 (≈ 9.59 µM) | > 50 | > 100 | 1 (≈ 1.92 µM) | > 100 | > 100 | > 50 | 20 (≈ 38.3 µM) | > 4
CC(C)OC(=O)C(N)CCSC[C@H]1OC(n2ccc3c(N)ncnc32)[C@H](O)[C@@H]1O (some centres undefined) | > 10 | > 40 | > 100 | > 10 | 7 (≈ 16.5 µM) | 20 (≈ 47 µM) | > 100 | 0.2 (≈ 0.47 µM) | > 40 | > 100 | > 40 | 7 (≈ 16.5 µM) | > 1.6
Nc1ncnc2c1ncn2[C@H]1C[C@H](O)[C@@H](CO)O1 [DEOXYADENOSINE] | > 150 | > 200 | > 200 | 100 (≈ 398 µM) | > 200 | > 200 | > 200 | 150 (≈ 597 µM) | > 200 | > 200 | > 200 | > 200 | > 20
Nc1nccc2ncn([C@H]3C[C@H](O)[C@@H](CO)O3)c12 | 150 (≈ 599 µM) | > 400 | > 400 | 100 (≈ 400 µM) | > 200 | > 400 | > 200 | > 200 | > 200 | > 400 | > 400 | > 200 | > 50
Nc1ncnc2c([C@H]3CC[C@@H](CCl)O3)n[nH]c12 | > 200 | > 200 | > 200 | > 200 | > 400 | > 200 | > 400 | > 400 | > 400 | > 400 | > 200 | > 400 | > 100
COC(=O)C(N)CCSC[C@H]1OC(n2ccc3c(N)ncnc32)[C@H](O)[C@@H]1O (some centres undefined) | > 100 | > 200 | > 100 | 20 (≈ 50.3 µM) | 20 (≈ 50.3 µM) | > 200 | > 200 | 4 (≈ 10.1 µM) | > 200 | > 200 | > 200 | 20 (≈ 50.3 µM) | > 20
Nc1nccc2c1ncn2[C@H]1CC[C@@H](CO)O1 | > 200 | > 100 | > 100 | > 100 | > 100 | > 100 | > 200 | > 100 | > 200 | > 100 | > 100 | > 200 | > 100
CCCOC(=O)C(CCSC[C@H]1OC(n2ccc3c(N)ncnc32)[C@H](O)[C@@H]1O)NC(C)=O (some centres undefined) | 40 (≈ 85.6 µM) | > 40 | 20 (≈ 42.8 µM) | 20 (≈ 42.8 µM) | 7 (≈ 15 µM) | 20 (≈ 42.8 µM) | 40 (≈ 85.6 µM) | 7 (≈ 15 µM) | 20 (≈ 42.8 µM) | > 40 | 15 (≈ 32.1 µM) | 20 (≈ 42.8 µM) | > 4
CC(=O)NC(CCSC[C@H]1OC(n2ccc3c(N)ncnc32)[C@H](O)[C@@H]1O)C(=O)OC(C)C (some centres undefined) | > 100 | > 100 | 40 (≈ 85.6 µM) | 40 (≈ 85.6 µM) | 10 (≈ 21.4 µM) | > 100 | 100 (≈ 214 µM) | 10 (≈ 21.4 µM) | 70 (≈ 150 µM) | > 200 | > 70 | 20 (≈ 42.8 µM) | > 4
Nc1ncnc2c1ncn2[C@@H]1O[C@H](CO)C[C@H]1O [CORDYCEPIN] | > 40 | > 100 | > 100 | > 40 | > 40 | > 100 | > 100 | > 100 | > 100 | > 100 | > 100 | > 100 | > 4
CCCCOC(=O)C(N)CCSC[C@H]1OC(n2ccc3c(N)ncnc32)[C@H](O)[C@@H]1O (some centres undefined) | 20 (≈ 45.5 µM) | > 200 | > 200 | > 10 | 20 (≈ 45.5 µM) | 150 (≈ 341 µM) | > 100 | 2 (≈ 4.55 µM) | > 40 | > 200 | 70 (≈ 159 µM) | 7 (≈ 15.9 µM) | > 1.6
